What was measured:
HCV NS5B = biological target: T1, HCV NS5B (Hepatitis C virus genotype 1b, UniProt Q9WMX2); test: Inhibition of viral RNA-dependent RNA polymerase (RdRp), in vitro biochemical assay; design: species or system HCV genotype 1b virus (BB7); conditions: HCV NS5B RdRp, BB7; activity class; read-out: HCV pol-BB7 IC50
T1 construct: fusion protein, of which the carboxyl terminal 21 amino acids were removed to enhance its solubility; His tag (GSHHHHHH); made in house; host or cells: E. coli
Method in brief: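 Purified recombinant NS5B from a genotype 1b consensus (BB7), His-tagged, E. coli-expressed, with the C-terminal 21 residues deleted. Inhibition of RdRp activity in vitro was measured, and IC50 is the concentration giving 50% inhibition.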

[1] = tested on: HCV replicon (BB7 sequence) in Huh-7-Clone A cells; test: HCV replicon assay: ELISA of NS5A protein in replicon-containing cells (Inhibition of Viral RNA Replication); format: cell-based; conditions: Hepatitis C virus; HCV replicon assay; ranges of EC50; read-out: Replicon
Method in brief: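 Huh-7-Clone A cells carrying subgenomic BB7 HCV replicon (G418-selectable) incubated 72 h with compound. NS5A protein quantified by cell ELISA: glutaraldehyde fixation, anti-NS5A monoclonal plus HRP secondary, TMB read at OD 650 nm. EC50 derived from 8-point serial dilution dose curve.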

For `CCNc1cc2oc(-c3ccc(F)cc3)c(C(=O)NC)c2c(Cl)c1OS(C)(=O)=O` [Example 342, Methanesulfonic acid 4-chloro-6-ethylamino-2-(4-fluoro-phenyl)-3-methylcarbamoyl-benzofuran-5-yl ester], the IC50 (HCV NS5B) was at most 500 nM and the EC50 [1] was under 10000 nM.
`CCc1cc2c(C(=O)NC)c(-c3ccc(F)cc3)oc2cc1N(Cc1cscn1)S(C)(=O)=O` [Example 343, 5-Ethyl-2-(4-fluoro-phenyl)-6-(methanesulfonyl-thiazol-4-ylmethyl-amino)-benzofuran-3-carboxylic acid methylamide] showed an IC50 (HCV NS5B) of at most 500 nM and an EC50 [1] of under 1000 nM.
`CNC(=O)c1c(-c2ccc(F)cc2)oc2cc(-c3c(COC)noc3C3CC3)c(OC)cc12` [Example 344, 6-(5-Cyclopropyl-3-methoxymethyl-isoxazol-4-yl)-2-(4-fluoro-phenyl)-5-methoxy-benzofuran-3-carboxylic acid methylamide] was tested, and the IC50 (HCV NS5B) was at most 500 nM and the EC50 [1] was under 1000 nM.
`CNC(=O)c1c(-c2ccc(F)cc2)oc2cc(C3CCN(C(C)=O)C3)c(OC)cc12` (stereo not shown) [Example 345, 6-(1-Acetyl-pyrrolidin-3-yl)-2-(4-fluoro-phenyl)-5-methoxy-benzofuran-3-carboxylic acid methylamide] gave an IC50 (HCV NS5B) of at most 500 nM and an EC50 [1] of under 10000 nM.
With `CNC(=O)c1c(-c2ccc(F)cc2)oc2cc(N(C)S(C)(=O)=O)c(OCc3ccc(F)c(F)c3)cc12` [Example 346, 5-(3,4-Difluoro-benzyloxy)-2-(4-fluoro-phenyl)-6-(methanesulfonyl-methyl-amino)-benzofuran-3-carboxylic acid methylamide] the IC50 (HCV NS5B) was at most 500 nM and the EC50 [1] was under 1000 nM.
`CNC(=O)c1c(-c2ccc(F)cc2)oc2cc(N(C)S(C)(=O)=O)c(OCc3ccccc3OC(F)F)cc12` [Example 347, 5-(2-Difluoromethoxy-benzyloxy)-2-(4-fluoro-phenyl)-6-(methanesulfonyl-methyl-amino)-benzofuran-3-carboxylic acid methylamide] showed an IC50 (HCV NS5B) of at most 500 nM and an EC50 [1] of under 1000 nM.
`CCCOc1cc2c(C(=O)NC)c(-c3ccc(F)cc3)oc2cc1N(C)S(C)(=O)=O` [Example 348, 2-(4-Fluoro-phenyl)-6-(methanesulfonyl-methyl-amino)-5-propoxy-benzofuran-3-carboxylic acid methylamide] showed an IC50 (HCV NS5B) of at most 500 nM and an EC50 [1] of under 1000 nM.
`C=CCOc1cc2c(C(=O)NC)c(-c3ccc(F)cc3)oc2cc1N(C)S(C)(=O)=O` [Example 349, 5-Allyloxy-2-(4-fluoro-phenyl)-6-(methanesulfonyl-methyl-amino)-benzofuran-3-carboxylic acid methylamide] gave an IC50 (HCV NS5B) of at most 500 nM and an EC50 [1] of under 1000 nM.
`CCOCc1cc(-c2cc3oc(-c4ccc(F)cc4)c(C(=O)NC)c3cc2OC)no1` [Example 350, 6-(5-Ethoxymethyl-isoxazol-3-yl)-2-(4-fluoro-phenyl)-5-methoxy-benzofuran-3-carboxylic acid methylamide] showed an IC50 (HCV NS5B) of at most 500 nM and an EC50 [1] of under 1000 nM.
For `CNC(=O)c1c(-c2ccc(F)cc2)oc2cc(N(C)S(C)(=O)=O)c(OCC3CC3)cc12` [Example 351, 5-Cyclopropylmethoxy-2-(4-fluoro-phenyl)-6-(methanesulfonyl-methyl-amino)-benzofuran-3-carboxylic acid methylamide], the IC50 (HCV NS5B) was at most 500 nM and the EC50 [1] was under 1000 nM.
`CNC(=O)c1c(-c2ccc(F)cc2)oc2cc(N(C)S(C)(=O)=O)c(OCc3cc(OC)cc(OC)c3)cc12` [Example 352, 5-(3,5-Dimethoxy-benzyloxy)-2-(4-fluoro-phenyl)-6-(methanesulfonyl-methyl-amino)-benzofuran-3-carboxylic acid methylamide] gave an IC50 (HCV NS5B) of at most 500 nM and an EC50 [1] of under 1000 nM.
`CNC(=O)c1c(-c2ccc(F)cc2)oc2cc(N(C)S(C)(=O)=O)c(OCc3ccc(S(C)(=O)=O)cc3)cc12` [Example 353, 2-(4-Fluoro-phenyl)-5-(4-methanesulfonyl-benzyloxy)-6-(methanesulfonyl-methyl-amino)-benzofuran-3-carboxylic acid methylamide] was tested, and the IC50 (HCV NS5B) was at most 500 nM and the EC50 [1] was under 1000 nM.
`CNC(=O)c1c(-c2ccc(F)cc2)oc2cc(N(C)S(C)(=O)=O)c(OCC(=O)c3ccc(OC)cc3)cc12` [Example 355, 2-(4-Fluoro-phenyl)-6-(methanesulfonyl-methyl-amino)-5-[2-(4-methoxy-phenyl)-2-oxo-ethoxy]-benzofuran-3-carboxylic acid methylamide] showed an IC50 (HCV NS5B) of at most 500 nM and an EC50 [1] of under 1000 nM.
Work on `CNC(=O)c1c(-c2ccc(F)cc2)oc2cc(N(C)S(C)(=O)=O)c(OCc3cccc(C#N)c3)cc12` [Example 356, 5-(3-Cyano-benzyloxy)-2-(4-fluoro-phenyl)-6-(methanesulfonyl-methyl-amino)-benzofuran-3-carboxylic acid methylamide] yielded an IC50 (HCV NS5B) of at most 500 nM and an EC50 [1] of under 1000 nM.
Work on `CNC(=O)c1c(-c2ccc(F)cc2)oc2cc(N(C)S(C)(=O)=O)c(OCc3ccc(C#N)cc3)cc12` [Example 357, 5-(4-Cyano-benzyloxy)-2-(4-fluoro-phenyl)-6-(methanesulfonyl-methyl-amino)-benzofuran-3-carboxylic acid methylamide] yielded an IC50 (HCV NS5B) of at most 500 nM and an EC50 [1] of under 1000 nM.
`CCOC(=O)c1ccc(NC(=O)COc2cc3c(C(=O)NC)c(-c4ccc(F)cc4)oc3cc2N(C)S(C)(=O)=O)cc1` [Example 359, 4-{2-[2-(4-Fluoro-phenyl)-6-(methanesulfonyl-methyl-amino)-3-methylcarbamoyl-benzofuran-5-yloxy]-acetylamino}-benzoic acid ethyl ester] gave an IC50 (HCV NS5B) of at most 500 nM and an EC50 [1] of under 10000 nM.
In the case of `CNC(=O)c1c(-c2ccc(F)cc2)oc2cc(N(C)S(C)(=O)=O)c(OCC(=O)c3ccc(F)cc3)cc12` [Example 360, 2-(4-Fluoro-phenyl)-5-[2-(4-fluoro-phenyl)-2-oxo-ethoxy]-6-(methanesulfonyl-methyl-amino)-benzofuran-3-carboxylic acid methylamide], the IC50 (HCV NS5B) is reported as at most 500 nM and the EC50 [1] is reported as under 1000 nM.
With `CNC(=O)c1c(-c2ccc(F)cc2)oc2cc(N(Cc3ccccc3)S(C)(=O)=O)c(OC(C)C)cc12` [Example 361, 6-(Benzyl-methanesulfonyl-amino)-2-(4-fluoro-phenyl)-5-isopropoxy-benzofuran-3-carboxylic acid methylamide] the IC50 (HCV NS5B) was at most 500 nM and the EC50 [1] was under 1000 nM.
Work on `CCN(C)c1cc2oc(-c3ccc(F)cc3)c(C(=O)NC)c2c(Cl)c1OC` [Example 362, 4-Chloro-6-(ethyl-methyl-amino)-2-(4-fluoro-phenyl)-5-methoxy-benzofuran-3-carboxylic acid methylamide] yielded an IC50 (HCV NS5B) of at most 500 nM and an EC50 [1] of under 10000 nM.
`CCNc1cc2oc(-c3ccc(F)cc3)c(C(=O)NC)c2c(Cl)c1OC` [Example 363, 4-Chloro-6-ethylamino-2-(4-fluoro-phenyl)-5-methoxy-benzofuran-3-carboxylic acid mehtylamide] gave an IC50 (HCV NS5B) of at most 500 nM and an EC50 [1] of under 1000 nM.
`CCNc1cc2oc(-c3ccc(F)cc3)c(C(=O)NC)c2cc1O` [Example 364, 6-Ethylamino-2-(4-fluoro-phenyl)-5-hydroxy-benzofuran-3-carboxylic acid methylamide] gave an IC50 (HCV NS5B) of 500 to 5000 nM and an EC50 [1] of over 30000 nM.
`CCNc1cc2oc(-c3ccc(F)cc3)c(C(=O)NC)c2cc1OCCCBr` [Example 365, 5-(3-Bromo-propoxy)-6-ethylamino-2-(4-fluoro-phenyl)-benzofuran-3-carboxylic acid methylamide] showed an IC50 (HCV NS5B) of at most 500 nM and an EC50 [1] of under 1000 nM.
`C=CCOc1cc2c(C(=O)NC)c(-c3ccc(F)cc3)oc2cc1NCC` [Example 366, 5-Allyloxy-6-ethylamino-2-(4-fluoro-phenyl)-benzofuran-3-carboxylic acid methylamide] showed an IC50 (HCV NS5B) of at most 500 nM and an EC50 [1] of under 1000 nM.
In the case of `CCNc1cc2oc(-c3ccc(F)cc3)c(C(=O)NC)c2cc1OCCCOCC` [Example 367, 5-(3-Ethoxy-propoxy)-6-ethylamino-2-(4-fluoro-phenyl)-benzofuran-3-carboxylic acid methylamide], the IC50 (HCV NS5B) is reported as at most 500 nM and the EC50 [1] is reported as under 1000 nM.
Compound `CNC(=O)c1c(-c2ccc(F)cc2)oc2cc(C3CCCN3C(N)=O)c(OC)cc12` (stereo not shown) [Example 368, 2-[2-(4-Fluoro-phenyl)-5-methoxy-3-methylcarbamoyl-benzofuran-6-yl]-pyrrolidine-1-carboxylic acid amide] has an IC50 (HCV NS5B) of at most 500 nM and an EC50 [1] of under 1000 nM.
Work on `CNC(=O)c1c(-c2ccc(F)cc2)oc2cc(N(C)S(C)(=O)=O)c(OCC(C)=O)cc12` [Example 369, 2-(4-Fluoro-phenyl)-6-(methanesulfonyl-methyl-amino)-5-(2-oxo-propoxy)-benzofuran-3-carboxylic acid methylamide] yielded an IC50 (HCV NS5B) of at most 500 nM and an EC50 [1] of under 1000 nM.
In the case of `CNC(=O)c1c(-c2ccc(F)cc2)oc2cc(N(C)S(C)(=O)=O)c(OCC(C)O)cc12` (stereo not shown) [Example 370, 2-(4-Fluoro-phenyl)-5-(2-hydroxy-propoxy)-6-(methanesulfonyl-methyl-amino)-benzofuran-3-carboxylic acid methylamide], the IC50 (HCV NS5B) is reported as at most 500 nM and the EC50 [1] is reported as under 1000 nM.
Work on `CNC(=O)c1c(-c2ccc(F)cc2)oc2cc(N(C)S(C)(=O)=O)c(OCc3nnnn3C)cc12` [Example 371, 2-(4-Fluoro-phenyl)-6-(methanesulfonyl-methyl-amino)-5-(1-methyl-1H-tetrazol-5-ylmethoxy)-benzofuran-3-carboxylic acid methylamide] yielded an IC50 (HCV NS5B) of at most 500 nM and an EC50 [1] of under 1000 nM.
`CNC(=O)c1c(-c2ccc(F)cc2)oc2cc(-c3cc(COC(C)C)on3)c(OC)cc12` [Example 372, 2-(4-Fluoro-phenyl)-6-(5-isopropoxymethyl-isoxazol-3-yl)-5-methoxy-benzofuran-3-carboxylic acid methylamide] showed an IC50 (HCV NS5B) of at most 500 nM and an EC50 [1] of under 1000 nM.
